Laboratory results from ChEMBL document CHEMBL1140229, “Flavanones from the stem bark of Erythrina abyssinica” (Bioorg Med Chem, 2008).
pIC50: −log10 of the molar value. Active and inactive are the calls of the source. No cut-off for these calls is given here.

What follows are compounds tested against T1, Tyrosine-protein phosphatase non-receptor type 1 (Homo sapiens, UniProt P18031) (assay: (§1) Inhibition of human recombinant PTP1B).
T1 sequence (P18031 whole entry): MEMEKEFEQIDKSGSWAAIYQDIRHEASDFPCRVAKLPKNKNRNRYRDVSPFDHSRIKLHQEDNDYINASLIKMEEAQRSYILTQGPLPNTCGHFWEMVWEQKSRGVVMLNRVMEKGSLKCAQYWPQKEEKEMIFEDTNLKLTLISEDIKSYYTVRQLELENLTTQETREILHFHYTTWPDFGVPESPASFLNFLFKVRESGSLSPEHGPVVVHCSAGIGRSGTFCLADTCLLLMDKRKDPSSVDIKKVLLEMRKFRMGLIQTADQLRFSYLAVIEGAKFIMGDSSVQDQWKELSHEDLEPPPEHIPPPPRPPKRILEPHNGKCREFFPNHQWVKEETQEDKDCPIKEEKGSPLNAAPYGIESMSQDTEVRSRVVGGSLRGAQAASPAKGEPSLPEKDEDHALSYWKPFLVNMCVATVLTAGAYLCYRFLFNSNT

Row | SMILES | pIC50
1 | CC1(C)C(C2CC(=O)c3ccccc3O2)=C(O)C(O)=C2OC(O)C(O)C(O)C21 (centres undefined) [SIGMOIDIN G] | < 4.22
2 | CC1(C)Oc2c(O)cc([C@@H]3CC(=O)c4ccc(O)cc4O3)cc2CC1O (some centres undefined) | < 4.22
3 | CC1(C)Oc2ccc([C@@H]3CC(=O)c4c(O)cc(O)cc4O3)cc2C(O)C1O (some centres undefined) | < 4.22
4 | COc1cc([C@@H]2CC(=O)c3c(O)cc(O)cc3O2)cc2c1OC(C)(C)C(O)C2 (some centres undefined) | 4.74
5 | CC(C)=CCc1c([C@@H]2CC(=O)c3c(O)cc(O)cc3O2)cc(O)c2c1C=CC(C)(C)O2 | 4.86
6 | CC1(CO)C=Cc2cc([C@@H]3CC(=O)c4c(O)cc(O)cc4O3)cc(O)c2O1 (some centres undefined) | < 4.22
7 | CC1(C)Oc2c(O)cc([C@@H]3CC(=O)c4ccc(O)cc4O3)cc2C(O)C1O (some centres undefined) | < 4.22
8 | CC1(C)Oc2c(O)cc([C@@H]3CC(=O)c4c(O)cc(O)cc4O3)cc2C[C@@H]1O [SIGMOIDIN D] | < 4.22
9 | CC(C)=CCc1cc([C@@H]2CC(=O)c3c(O)cc(O)cc3O2)cc2c1OC(C)(C)C(O)C2 (some centres undefined) | 4.83
10 | CC1(C)CC(=O)c2cc([C@@H]3CC(=O)c4c(O)cc(O)cc4O3)cc(O)c2O1 | < 4.22
11 | CC(C)=CCc1cc([C@@H]2CC(=O)c3c(O)cc(O)cc3O2)cc2c1OC(C)(C)C(O)C2O (some centres undefined) | 4.72
12 | C=C(C)/C=C/c1cc([C@@H]2CC(=O)c3c(O)cc(O)cc3O2)cc(CC=C(C)C)c1OC [BURTTINONEDEHYDRATE] | 4.67
13 | COc1c(/C=C/C(C)(C)O)cc([C@@H]2CC(=O)c3c(O)cc(O)cc3O2)cc1CC=C(C)C [BURTTINONE] | 4.72
14 | COc1cc([C@@H]2CC(=O)c3c(O)cc(O)cc3O2)cc2c1OC(C)(CO)C=C2 (some centres undefined) | 4.75
15 | CC1(C)C=Cc2cc([C@@H]3CC(=O)c4c(O)cc(O)cc4O3)c3c(c2O1)OC(C)(C)C=C3 | < 4.22
16 | CCCCCCCCCCCCCCCC(=O)C1=C(O)[C@@H](CO)OC1=O | 5.33
17 | CC(C)=CCc1c([C@@H]2CC(=O)c3c(O)cc(O)cc3O2)cc2c(c1O)OC(C)(C)C(O)C2O (some centres undefined) | 4.74

Each compound was assayed against T2, Tyrosine-protein phosphatase non-receptor type 1 (Homo sapiens) (UniProt P18031) (assay: as §1).
T2 sequence (whole entry): T1 sequence (P18031 whole entry)

Row | SMILES | Activity
18 | O=C1C[C@@H](c2ccc(O)cc2)Oc2cc(O)cc(O)c21 | inactive
19 | O=C1C[C@@H](c2ccc(O)cc2)Oc2cc(O)ccc21 | inactive
